# Reference: PMC8486139, “A new phenothiazine derivate is active against Clostridioides difficile and shows low cytotoxicity” (PLoS ONE, 2021)
# Where two headings read alike, the source gives them in different places.
# Tests used:
# [1] = tested on: C. difficile ATCC 43255; experiment: Minimum bactericidal concentration (MBC), plating from MIC wells; conditions: C. difficile ATCC 43255, ≥3 log reduction of inoculum
# Protocol: Minimum bactericidal concentration (MIC) values were defined as the lowest concentrations of test compounds causing ≥3 log reductions of the initial cell inocula (∼ 10^5 CFU/mL in the final assay). Briefly, 100 μl from each well of the MIC assay (after incubation) were plates on ChromID® plates. After incubation for 24 h, viable counts were enumerated on ChromID® plates. Both the MIC and MBC were conducted with three biological replicates.
# [2] = tested on: C. difficile ATCC 43255; experiment: Minimal inhibition concentration (MIC) in 96-well microtitre plates; assay type: cell-based, Clostridioides difficile; conditions: C. difficile ATCC 43255, 24 h anaerobic incubation
# Source text: C. difficile ATCC 43255, previously isolated from an abdominal wound, was used to assess the anti-clostridioides activity of JBC 1847. The strain was stored in reinforced clostridial medium (Oxoid, Roskilde, Denmark) in 15% glycerol at -[…] until use and grown anaerobically on ChromID® C. difficile plates (bioMérieux, Ballerup, Denmark).
# [3] = tested on: gastrointestinal microbiota; conditions: mice
# [4] = tested on: MRSA; conditions: cited from earlier work
# [5] = tested on: NMRI female mice
# [6] = tested on: Caco-2 cell monolayers; experiment: MTS/PMS cell proliferation (metabolic activity) assay; assay type: cell-based
# Protocol: The cell proliferation assay (MTS/PMS; [3-(4,5-dimethylthiazol-2-yl)-5-(3-carboxymethoxyphenyl)-2-(4-sulfophenyl)-2H-tetrazolium, inner salt; MTS] and an electron coupling reagent (phenazine methosulfate) PMS) assay was performed by incubating the Caco-2 cell monolayers with 400 μL of a PMS/MTS solution in the apical compartment and 500 μL supplemented HBSS in the basolateral chamber (according to manufacturer’s instructions) for 60 minutes at 37°C and circular rotation (50 rpm). After incubation, 2×100 μL samples were taken from each monolayer and the absorbance at 492 nm in a 96-well plate.
# [7] = tested on: Caco-2 cell monolayers; experiment: LDH release assay; assay type: cell-based
# Protocol: For analysis of the LDH activity, the samples taken from the apical compartment after the exposure experiment were diluted 5-fold and analyzed in the LDH assay according to manufacturer’s instructions. Briefly, the assay consisted of mixing the diluted samples with different assay reagents followed by incubation at room temperature for 30 min and the absorbance at 492 nm as a measure for LDH activity. A lysate of Caco-2 monolayers (prepared by suspending Caco-2 cell monolayers in purified water) was included as a positive control for maximal response in the assay.
# [8] = tested on: Methicillin resistant Staphylococcus aureus (MRSA); conditions: cited from earlier work
# [9] = tested on: fecal bacterial count; experiment: Four-day oral treatment: CFU per gram feces by 16S rRNA qPCR; assay type: in vivo; conditions: mice; for average CFU/g fecal sample after treatment: four days
# [10] = tested on: Caco-2 cell monolayers
# [11] = tested on: C. difficile; conditions: previously shown; cited from earlier work
smiles,measurement,setting,value
CC(C)=CCCC(C)CC[N+](C)(C)CCCN1c2ccccc2Sc2ccccc21 (stereo not shown) [JBC 1847],MBC,[1],4 µg/mL
same,MIC,[2],4 µg/mL
same,tendency in Lactobacillus spp abundance,[3]; especially small intestine (Fig 5),concentration-depended increase
same,consistency of the fecal material,[3]; exposure trial,No changes
same,bacterial load of MRSA in wound model,[4],highly effective in decreasing the bacterial load
same,dose tolerated without any clinical signs of discomfort,"[5]; mice, oral",up to 100 mg/kg bw
same,clinical score of discomfort,"[5]; mouse, in vivo, 25 mg/kg",1
same,clinical score of discomfort,"[5]; mouse, in vivo, 100 mg/kg",0
same,tolerance of two doses,"[5]; mouse, in vivo, po, 100 mg/kg",tolerated well
same,MTS/PMS response vs buffer controls,[6]; 29 μg/mL,not significantly reduced
same,MTS/PMS response (metabolic activity) vs buffer control,[6]; 58.1 μg/mL (100 μM),statistically significant reduction
same,LDH release compared to buffer control,[7]; 29 μg/mL (50 μM),significantly higher
same,LDH release compared to buffer control,"[7]; 29 μg/mL (50 μM), listed as JBC1 8473",statistically significant increase
same,LDH release compared to buffer control,[7]; 58.1 μg/ml in Fig 3,significantly higher
same,LDH release compared to buffer control,"[7]; 58.1 μg/ml in Fig 3, listed as JBC1 8473",statistically significant increase
same,"MIC against MRSA compared to the mother compound, promazine",[8],lower the minimal inhibition concentration (MIC) remarkably
same,average CFU/g fecal sample after treatment,[9]; 20 mg/kg bw,4.4 ×10^9 CFU/g
same,average CFU/g fecal sample after treatment,[9]; 100 mg/kg bw,6.8 × 10^9 CFU/g
same,change in CFU/g fecal sample after treatment,[9]; p = 0.51,no significant changes
same,effect on TEER,[10]; concentrations up to seven times MIC,did not affect the TEER negatively
same,cytotoxicity in Caco-2 cell-line assays,[10]; concentrations up to seven times the minimal bactericidal concentration,indication of toxicity was not observed
CSc1ccc2c(c1)N(CCC1CCCCN1C)c1ccccc1S2 (stereo not shown) [Thioridazine],antimicrobial activity against C. difficile,[11],antimicrobial activity
